Legend:
Type in all cases: cell-based, mouse
[1] = system: α7 integrin (LacZ reporter in α7βgal+/− myoblasts); assay: Myoblast α7+/LacZ integrin FDG assay (Burkin assay in myoblasts, 96-well); conditions: α7+/LacZ myoblasts, 96-well
[2] = system: α7 integrin (LacZ reporter in α7+/LacZ myotubes); assay: Myotube α7 integrin FDG assay (Burkin assay in myotubes, 96-well); conditions: myotubes
[3] = system: β-galactosidase in CMV-LacZ C2C12 myoblasts; assay: CMV-LacZ secondary screen in C2C12 myoblasts (β-Gal stabilizing assay); conditions: CMV-LacZ C2C12 myoblasts
Outline: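 C2C12 myoblasts stably carrying a linearized CMV-driven LacZ construct, clone chosen by β-gal level in the myoblast FDG assay. Compounds tested in 96-well dose-response at 0.5, 1, 5, 10, 20 and 40 μM, N=2 replicates per point, to detect β-gal stabilization.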

[4] = system: β-galactosidase in CMV-LacZ C2C12 myotubes; assay: CMV-LacZ secondary screen in C2C12 myotubes (β-Gal stabilizing assay); conditions: C2C12 CMV-LacZ myotubes, fold relative to DMSO
Outline: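 Dose-response runs at 0.5–40 μM (0.5, 1, 5, 10, 20, 40 μM; N=2 per point) used a clonal C2C12 line carrying CMV-LacZ. Cells were assayed as myoblasts or as differentiated myotubes, and β-galactosidase levels were read with the FDG fluorogenic substrate.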

SMILES	Burkin Assay in Myoblasts, signal relative to DMSO ([1]; 0.5 uM)	Burkin Assay in Myoblasts, signal relative to DMSO ([1]; 1 uM)	Burkin Assay in Myoblasts, signal relative to DMSO ([1]; 5 uM)	Burkin Assay in Myoblasts, signal relative to DMSO ([1]; 10 uM)	Burkin Assay in Myoblasts, signal relative to DMSO ([1]; 20 uM)	Burkin Assay in Myoblasts, signal relative to DMSO ([1]; 40 uM)	Burkin Assay in Myotubes, α7 integrin LacZ reporter signal relative to DMSO ([2]; 0.5 uM)	Burkin Assay in Myotubes, α7 integrin LacZ reporter signal relative to DMSO ([2]; 1 uM)	Burkin Assay in Myotubes, α7 integrin LacZ reporter signal relative to DMSO ([2]; 5 uM)	Burkin Assay in Myotubes, α7 integrin LacZ reporter signal relative to DMSO ([2]; 10 uM)	Burkin Assay in Myotubes, α7 integrin LacZ reporter signal relative to DMSO ([2]; 20 uM)	Burkin Assay in Myotubes, α7 integrin LacZ reporter signal relative to DMSO ([2]; 40 uM)	CMV-LACZ in Myoblasts (β-galactosidase activity relative to DMSO) ([3]; 0.5 uM)	CMV-LACZ in Myoblasts (β-galactosidase activity relative to DMSO) ([3]; 1 uM)	CMV-LACZ in Myoblasts (β-galactosidase activity relative to DMSO) ([3]; 5 uM)	CMV-LACZ in Myoblasts (β-galactosidase activity relative to DMSO) ([3]; 10 uM)	CMV-LACZ in Myoblasts (β-galactosidase activity relative to DMSO) ([3]; 20 uM)	CMV-LACZ in Myoblasts (β-galactosidase activity relative to DMSO) ([3]; 40 uM)	CMV-LACZ in Myotubes, signal relative to DMSO ([4]; 0.5 uM)	CMV-LACZ in Myotubes, signal relative to DMSO ([4]; 1 uM)	other results
CNC(=O)CSc1nnc(-c2ccc3c(c2)OCO3)n1C [MLS000717689-01]	1.158	1.042	1.032	1.038	0.96	0.9866	1.111	0.9006	1.048	1.076	0.8283	0.7135	1.0125	1.0203	1.1129	1.0936	1.0407	0.8996	0.8415	1.0956	CMV-LACZ in Myotubes, signal relative to DMSO ([4]; 5 uM): 0.9686; CMV-LACZ in Myotubes, signal relative to DMSO ([4]; 10 uM): 0.9569; CMV-LACZ in Myotubes, signal relative to DMSO ([4]; 20 uM): 0.9576; CMV-LACZ in Myotubes, signal relative to DMSO ([4]; 40 uM): 0.9129
Cn1cc(CN(CCO)Cc2cccs2)c(-c2ccccc2F)n1 [MLS000732652-01]	1.176	1.191	0.972	1.2648	1.0346	0.8792	1.092	1.116	1.1938	1.141	0.6797	0.7309	0.6700	0.7744	1.1327	1.1235	0.9374	0.7856	1.1615	0.8859	CMV-LACZ in Myotubes, signal relative to DMSO ([4]; 5 uM): 1.0614; CMV-LACZ in Myotubes, signal relative to DMSO ([4]; 10 uM): 1.0697; CMV-LACZ in Myotubes, signal relative to DMSO ([4]; 20 uM): 0.8518; CMV-LACZ in Myotubes, signal relative to DMSO ([4]; 40 uM): 1.0329

From patent publication US9980943B2, “Methods of treating muscular dystrophy” (BOARD OF REGENTS OF THE NEVADA SYSTEM OF HIGHER EDUCATION, …, priority 2013, dated 2018)
